From ChEMBL document CHEMBL1201862, “PubChem BioAssay data set” (2004)
Activity calls are given as the source filed them.

Experiments:
[1] = A Cell Based Secondary Assay To Explore Cytotoxicity of Compounds that Sensitize Mycobacterium Tuberculosis to Beta-Lactam Antibiotics.; type: functional
Bcl-2-like protein 10 = target: T1, Bcl-2-like protein 10 (Homo sapiens, UniProt Q9HD36); assay: Concentration-response of Bcl-B inhibitors by biochemical FP with TR3 (AID 1243); type: functional
T1 sequence (Q9HD36 whole entry): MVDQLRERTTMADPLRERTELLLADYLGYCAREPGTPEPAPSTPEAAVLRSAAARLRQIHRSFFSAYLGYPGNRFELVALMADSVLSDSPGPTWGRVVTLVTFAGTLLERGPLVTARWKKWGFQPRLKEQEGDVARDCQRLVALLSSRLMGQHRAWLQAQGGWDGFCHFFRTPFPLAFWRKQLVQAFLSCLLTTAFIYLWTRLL

Streptococcus [2] = assay: Luminescence Microorganism-Based Dose Response Follow up to Identify Compounds Cytotoxic to Streptococcus. [Related pubchem assays: 1677 (Project Summary), 1915, 1914, 1902 (Retest at Dose), 1900 (Counter Screen), 1662 (Primary HTS)]; type: functional, organism-based
Streptococcus [3] = assay: GAS UMAA2166 growth inhibition – luminescence, BacTiterGlo, counter-screen for streptokinase expression inhibitor project, dose response (AID 1915); type: functional, organism-based;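 note: potency for reduction of bacterial viability or growth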
[4] = system: Streptococcus sp. 'group A'; assay: Streptococcus pyogenes SK(-)GAS viability under kanamycin – luminescence, BacTiterGlo, confirmation, counter-screen for streptokinase expression inhibitor project, dose response (AID 1900); type: functional, organism-based
[5] = target: T2, Corticotropin-releasing factor receptor 2/Corticotropin-releasing factor-binding protein (Homo sapiens, UniProt P24387+Q13324); assay: Dose Response confirmation of uHTS hits for small molecule antagonists of the CRF-binding protein and CRF-R2 receptor complex.; type: functional; settings: read-out: IC50_Mean
T2 sequence (Q13324 whole entry): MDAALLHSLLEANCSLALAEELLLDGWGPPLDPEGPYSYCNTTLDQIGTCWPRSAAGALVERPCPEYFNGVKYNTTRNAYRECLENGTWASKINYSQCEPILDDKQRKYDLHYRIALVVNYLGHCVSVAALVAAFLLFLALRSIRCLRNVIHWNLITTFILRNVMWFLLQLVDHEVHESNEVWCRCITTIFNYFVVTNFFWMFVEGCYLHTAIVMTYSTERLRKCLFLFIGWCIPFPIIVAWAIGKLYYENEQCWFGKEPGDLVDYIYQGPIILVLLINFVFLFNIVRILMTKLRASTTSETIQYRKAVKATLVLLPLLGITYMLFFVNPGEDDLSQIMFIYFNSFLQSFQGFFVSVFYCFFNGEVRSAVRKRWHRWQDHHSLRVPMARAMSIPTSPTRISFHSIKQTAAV
T2 sequence (P24387 whole entry): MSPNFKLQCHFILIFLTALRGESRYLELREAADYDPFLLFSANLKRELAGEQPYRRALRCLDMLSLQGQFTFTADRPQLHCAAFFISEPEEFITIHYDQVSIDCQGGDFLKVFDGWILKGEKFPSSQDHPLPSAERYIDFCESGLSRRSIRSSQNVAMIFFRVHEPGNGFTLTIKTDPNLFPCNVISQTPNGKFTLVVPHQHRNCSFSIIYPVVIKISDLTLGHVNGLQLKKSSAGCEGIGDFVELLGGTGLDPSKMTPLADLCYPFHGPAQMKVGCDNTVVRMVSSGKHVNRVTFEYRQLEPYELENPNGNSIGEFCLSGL

[6] = target: Transitional endoplasmic reticulum ATPase (Homo sapiens, UniProt P55072, C522A); assay: C522A mutant p97 ATPase inhibitors, dose response, counter-screen for p97 inhibitor project, biochemical, luminescence (AID 1544)
Sequence of Transitional endoplasmic reticulum ATPase (Homo sapiens, UniProt P55072, C522A) (P55072 2-806 C522A limits assumed): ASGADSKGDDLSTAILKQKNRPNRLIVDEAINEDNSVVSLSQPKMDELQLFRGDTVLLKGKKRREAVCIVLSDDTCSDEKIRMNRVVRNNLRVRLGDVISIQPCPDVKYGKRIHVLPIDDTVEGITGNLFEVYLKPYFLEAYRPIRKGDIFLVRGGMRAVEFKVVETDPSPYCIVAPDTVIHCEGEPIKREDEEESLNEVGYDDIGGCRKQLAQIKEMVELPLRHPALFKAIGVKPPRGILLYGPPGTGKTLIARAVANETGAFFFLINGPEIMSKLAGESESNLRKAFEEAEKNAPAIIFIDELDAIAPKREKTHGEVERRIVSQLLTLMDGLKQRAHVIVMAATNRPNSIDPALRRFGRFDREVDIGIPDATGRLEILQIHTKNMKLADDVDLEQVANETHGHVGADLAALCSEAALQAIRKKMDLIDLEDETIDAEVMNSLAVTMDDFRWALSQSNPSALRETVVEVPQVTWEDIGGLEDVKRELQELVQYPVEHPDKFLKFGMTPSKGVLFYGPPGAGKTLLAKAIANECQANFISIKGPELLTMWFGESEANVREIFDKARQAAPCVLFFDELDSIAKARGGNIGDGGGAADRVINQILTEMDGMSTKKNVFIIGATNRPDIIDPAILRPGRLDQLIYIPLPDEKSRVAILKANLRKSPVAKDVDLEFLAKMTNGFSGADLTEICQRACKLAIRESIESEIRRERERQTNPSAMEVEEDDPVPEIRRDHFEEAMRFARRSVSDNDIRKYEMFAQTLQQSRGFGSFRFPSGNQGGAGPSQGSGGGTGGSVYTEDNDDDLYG

[7] = target: T3, Long-chain-fatty-acid--AMP ligase FadD28 (Mycobacterium tuberculosis, UniProt P9WQ59); assay: Fluorescence polarization aasay to screen for inhibitors that compete for the binding of FadD28 to a bisubstrate Measured in Biochemical System Using Plate Reader - 2147-01_Inhibitor_Dose_CherryPick_Activity.; type: functional, Mycobacterium tuberculosis H37Rv
T3 sequence (P9WQ59 whole entry): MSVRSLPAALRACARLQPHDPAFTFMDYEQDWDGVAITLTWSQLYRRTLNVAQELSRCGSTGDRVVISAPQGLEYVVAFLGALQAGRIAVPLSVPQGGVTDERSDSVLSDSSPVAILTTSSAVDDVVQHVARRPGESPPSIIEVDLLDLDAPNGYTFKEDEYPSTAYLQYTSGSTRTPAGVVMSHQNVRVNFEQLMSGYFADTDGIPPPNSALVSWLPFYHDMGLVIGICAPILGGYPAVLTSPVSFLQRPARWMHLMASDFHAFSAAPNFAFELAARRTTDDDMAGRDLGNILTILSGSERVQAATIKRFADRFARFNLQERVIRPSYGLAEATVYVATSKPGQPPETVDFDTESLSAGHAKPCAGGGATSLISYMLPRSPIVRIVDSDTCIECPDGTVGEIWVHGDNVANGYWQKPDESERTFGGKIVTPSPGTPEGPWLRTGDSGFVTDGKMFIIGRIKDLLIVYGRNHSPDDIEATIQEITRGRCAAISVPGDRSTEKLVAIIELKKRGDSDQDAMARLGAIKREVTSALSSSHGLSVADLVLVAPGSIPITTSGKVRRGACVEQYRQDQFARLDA

[8] = target: T2, Corticotropin-releasing factor receptor 2/Corticotropin-releasing factor-binding protein; assay: activators of CRF receptor 2 with binding protein – uHTS hits, confirmation (AID 602473); type: functional; settings: read-out: EC50_Mean
[9] = target: Transitional endoplasmic reticulum ATPase (Homo sapiens, UniProt P55072); assay: p97 ATPase inhibitors, dose response, biochemical (AID 1534)
Sequence of Transitional endoplasmic reticulum ATPase (Homo sapiens, UniProt P55072) (P55072 whole entry): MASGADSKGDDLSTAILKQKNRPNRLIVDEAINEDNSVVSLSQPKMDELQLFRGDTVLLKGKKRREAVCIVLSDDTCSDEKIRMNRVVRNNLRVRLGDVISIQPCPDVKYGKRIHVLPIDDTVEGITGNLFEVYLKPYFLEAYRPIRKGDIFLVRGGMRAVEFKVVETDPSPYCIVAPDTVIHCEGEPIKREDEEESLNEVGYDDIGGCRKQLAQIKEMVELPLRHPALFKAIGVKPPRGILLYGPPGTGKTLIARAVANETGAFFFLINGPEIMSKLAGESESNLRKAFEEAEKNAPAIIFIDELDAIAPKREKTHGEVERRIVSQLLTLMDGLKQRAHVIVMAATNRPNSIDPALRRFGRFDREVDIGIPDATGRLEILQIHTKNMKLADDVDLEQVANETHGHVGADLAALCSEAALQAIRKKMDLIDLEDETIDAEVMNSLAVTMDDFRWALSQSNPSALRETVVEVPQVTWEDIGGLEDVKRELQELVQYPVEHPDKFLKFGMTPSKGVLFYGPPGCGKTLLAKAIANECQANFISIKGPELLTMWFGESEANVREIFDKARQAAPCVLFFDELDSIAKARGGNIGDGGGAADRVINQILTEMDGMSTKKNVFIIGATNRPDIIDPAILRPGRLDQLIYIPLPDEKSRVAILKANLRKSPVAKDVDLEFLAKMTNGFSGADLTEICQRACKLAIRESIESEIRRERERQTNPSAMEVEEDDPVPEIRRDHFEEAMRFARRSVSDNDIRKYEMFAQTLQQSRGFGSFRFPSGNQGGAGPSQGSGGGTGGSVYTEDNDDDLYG

[10] = blockers of CRF-binding protein–CRF-R2 complex – cell-based, uHTS hits, 384-well, dose response (AID 651639); type: functional, Homo sapiens; settings: read-out: IC50_Mean
Aminopeptidase N = target: T4, Aminopeptidase N (Plasmodium falciparum FcB1/Columbia, UniProt O96935); assay: malaria alanyl aminopeptidase activity blockers – biochemical, fluorogenic H-Leu-NHMec substrate, 1536-well (AID 1445); design: species or system Plasmodium falciparum 3D7, 3D7
T4 sequence (O96935 whole entry): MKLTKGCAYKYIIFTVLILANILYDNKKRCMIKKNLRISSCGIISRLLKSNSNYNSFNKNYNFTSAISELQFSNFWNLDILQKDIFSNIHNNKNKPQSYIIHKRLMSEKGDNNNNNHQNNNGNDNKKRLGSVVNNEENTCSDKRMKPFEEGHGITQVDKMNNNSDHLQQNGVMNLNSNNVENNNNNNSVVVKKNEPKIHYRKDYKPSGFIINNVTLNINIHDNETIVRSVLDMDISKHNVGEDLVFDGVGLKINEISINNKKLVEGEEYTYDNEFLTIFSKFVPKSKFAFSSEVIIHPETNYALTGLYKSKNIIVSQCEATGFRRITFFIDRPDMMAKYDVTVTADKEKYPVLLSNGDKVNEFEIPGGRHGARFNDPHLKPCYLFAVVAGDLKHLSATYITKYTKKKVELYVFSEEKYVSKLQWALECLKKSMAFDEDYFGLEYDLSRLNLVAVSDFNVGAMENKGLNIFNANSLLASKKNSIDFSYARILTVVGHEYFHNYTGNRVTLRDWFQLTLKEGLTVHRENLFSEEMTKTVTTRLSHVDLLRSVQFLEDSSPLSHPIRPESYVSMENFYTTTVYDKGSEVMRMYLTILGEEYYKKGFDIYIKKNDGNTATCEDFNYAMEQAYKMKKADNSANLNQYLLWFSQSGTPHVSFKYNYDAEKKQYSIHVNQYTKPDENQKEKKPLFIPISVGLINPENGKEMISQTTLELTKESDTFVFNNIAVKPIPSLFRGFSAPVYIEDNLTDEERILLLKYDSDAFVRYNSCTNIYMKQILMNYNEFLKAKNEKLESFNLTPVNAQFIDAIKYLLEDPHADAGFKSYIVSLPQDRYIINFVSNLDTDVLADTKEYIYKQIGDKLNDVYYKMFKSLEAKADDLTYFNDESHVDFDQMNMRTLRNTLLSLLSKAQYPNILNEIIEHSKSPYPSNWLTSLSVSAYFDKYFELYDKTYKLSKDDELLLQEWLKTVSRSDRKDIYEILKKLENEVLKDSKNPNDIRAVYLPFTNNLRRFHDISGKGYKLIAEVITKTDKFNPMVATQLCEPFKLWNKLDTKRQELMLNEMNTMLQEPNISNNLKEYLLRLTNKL

cells [11] = type: functional, cell-based
cells [12] = type: functional, cell-based; remark: listed apart in the source

CCOC(=O)c1c(C)[nH]c(C)c1C(=O)COC(=O)c1ccc(S(=O)(=O)N(CC)CC)cc1
CC50 [1]: > 40 µM (active)

Cn1c(=O)cc2c3c(c(Nc4ccc(C=O)cc4)ccc31)C(=O)c1ccccc1-2
EC50 (Bcl-2-like protein 10): 8.04 µM (active)

COc1ccc(SCC(=O)N2c3ccccc3Sc3ccccc32)cc1
EC50 (Streptococcus [2]): > 500 µM (not active)

O=C(CSc1nc(O)nc(-c2ccc(Cl)cc2)n1)Nc1cccc(Cl)c1
EC50 (Streptococcus [2]): 26.2 µM (active)
EC50 (Streptococcus [3]): > 150 µM (not active)
EC50 [4]: 4.35 µM (active)

Cc1[nH]c2ccccc2c1/C=C1/C(=N)N2C(=NC1=O)SN=C2S(=O)(=O)CC(C)C
IC50 [5]: 9.51 µM (active)
IC50 [6]: > 50 µM (not active)
AC50 [7]: > 100 µM (inactive)
EC50 [8]: > 53 µM (inactive)
IC50 [9]: 12.3 µM (not active)
IC50 [10]: > 20 µM (inactive)
IC50 (Aminopeptidase N): 29.5 µM (active)

CC(C)N=C(S)NN=C1c2ccccc2-c2ccccc21
EC50 (cells [11]): > 350 µM (not active)
EC50 (cells [12]): > 350 µM (not active)
CC50 [1]: > 40 µM (active)

COc1cc(C2Nc3ccc4ccccc4c3C3=C2C(=O)CC(C)(C)C3)c(Br)cc1O (configuration not stated)
EC50 (Bcl-2-like protein 10): 13.1 µM (active)
